Data as given in patent US7582611B2, “Motilide compounds” (Pfizer Inc., priority 2005, dated 2009).
≈ marks a conversion by molar mass, not a printed value.

Experiments:
[1] = test system: Streptococcus pneumoniae ATCC 6301; assay: Evaluation of antibacterial activity (MIC, serial dilutions on 96-well microtiter plates); assay type: cell-based; settings: ATCC6301, read-out: Antibacterial Activity (MIC, μg/mL)
[2] = molecular target: T1, Motilin Receptor (Oryctolagus cuniculus, UniProt G1T803); assay: Tissue based assay for motilin agonist potency (rabbit duodenum contractility); assay type: cell-based; settings: rabbit duodenum strips, contraction normalized to 1 μM carbachol; read-out: Motilin Receptor Agonist Activity (EC50)
T1 construct: strips of longitudinal smooth muscle were sliced from the segments; from tissue; host or cells: rabbit duodenum longitudinal smooth muscle strips
Procedure: The motilin agonist potencies of compounds of this invention were evaluated using a tissue based assay, using rabbit duodenum tissue-based contractility assay, generally following the procedure of Depoortere et al., J. Gastrointestinal Motility, 1, 150-159 (1989), the disclosure of which is incorporated herein by reference. Briefly, this method measures the ability of a compound to induce contractions in rabbit duodenal tissue, a motilin receptor-bearing tissue contractilely responsive to motilin.
Strips of rabbit duodenum were tested and qualified for use in the assay by as follows. Segments of rabbit duodenum, 20-30 cm distal to the pylorus were split longitudinally. The mucosa was removed and 2×2×15 mm strips of longitudinal smooth muscle were sliced from the segments. The strips were bathed in oxygenated Krebs solution at 37° C., with 1.5 g of tension, and contractions measured auxotonically.
The carbachol was then washed away by changing the organ bath buffer twice. The strips were washed again 20±5 minutes following the carbachol contraction. Following this last wash a dose response study was initiated within 10±5 min. Each compound tested was dissolved in dimethylsulfoxide (DMSO) to a final concentration of 10 mM. A series of seven 10× serial dilutions in water was prepared, so that the concentration of the seventh serial dilution was 1.0×10^−6 mM. The first through fifth serial dilutions of the compound were applied, starting with 200 μL of the most dilute solution. After each application, there was a wait of 2±0.5 min, until the response was stable, before the application of the next dose (the next higher concentration serial dilution). The dose was increased in 10-fold increments until a small response was observed. Subsequent doses were the increased in 2- to 5-fold increments, until the maximum response was obtained. At 2±0.5 min after the last drug addition, the strips were dosed with 1 μM carbachol.
The EC50 (concentration producing a half-maximal effect) was calculated as follows. The basal tension was subtracted from the compound-induced tension for each reading. The data points were normalized against the response obtained from 1 μM carbachol at the end of the experiment. The concentration of compound was plotted against the response and fitted to the following equation: R=(Rmax·C)/(EC50+C) where R is the contraction response, Rmax is the maximal contraction response, and C is the concentration of compound. Both R and Rmax are expressed as a fraction of the 1 μM carbachol contraction and range from 0 to 1.

T1 sequence (G1T803 1-400): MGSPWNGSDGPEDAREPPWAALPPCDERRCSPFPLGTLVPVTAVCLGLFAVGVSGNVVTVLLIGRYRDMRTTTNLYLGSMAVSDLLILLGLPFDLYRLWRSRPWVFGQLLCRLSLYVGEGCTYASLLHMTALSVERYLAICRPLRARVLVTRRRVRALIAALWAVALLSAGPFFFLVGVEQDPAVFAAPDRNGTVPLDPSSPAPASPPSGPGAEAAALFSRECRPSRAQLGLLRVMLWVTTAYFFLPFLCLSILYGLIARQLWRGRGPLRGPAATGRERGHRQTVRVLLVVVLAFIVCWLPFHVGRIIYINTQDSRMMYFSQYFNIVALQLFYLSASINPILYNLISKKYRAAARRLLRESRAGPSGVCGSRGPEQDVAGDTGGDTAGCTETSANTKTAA

| MIC [1] | EC50 [2] | Compound |
| --- | --- | --- |
| 128 µg/mL (≈ 149 µM) | 110 nM | CC[C@H]1OC(=O)[C@H](C)[C@@H](O[C@H]2C[C@@](C)(OC)[C@@H](O)[C@H](C)O2)[C@H](C)[C@@H](O[C@@H]2O[C@H](C)C[C@H](N(C)C(C)C)[C@H]2O)[C@](C)(O)C[C@@H](C)[C@H](OCc2cc(C)on2)[C@H](C)[C@@H](O)[C@]1(C)O [Compound A-27] |
| > 128 µg/mL | 740 nM | CC[C@H]1OC(=O)[C@H](C)[C@@H](O[C@H]2C[C@@](C)(OC)[C@@H](O)[C@H](C)O2)[C@H](C)[C@@H](O[C@@H]2O[C@H](C)C[C@H](N(C)C[C@H](C)O)[C@H]2O)[C@](C)(O)C[C@@H](C)[C@H](OCC(=O)O)[C@H](C)[C@@H](O)[C@]1(C)O [Compound A-11] |
| > 128 µg/mL | 104 nM | CC[C@H]1OC(=O)[C@H](C)[C@@H](O[C@H]2C[C@@](C)(OC)[C@@H](O)[C@H](C)O2)[C@H](C)[C@@H](O[C@@H]2O[C@H](C)C[C@H](N(C)C[C@H](C)O)[C@H]2O)[C@](C)(O)C[C@@H](C)[C@H](OCC(N)=O)[C@H](C)[C@@H](O)[C@]1(C)O [Compound A-14] |
| > 128 µg/mL | 290 nM | CC[C@H]1OC(=O)[C@H](C)[C@@H](O[C@H]2C[C@@](C)(OC)[C@@H](O)[C@H](C)O2)[C@H](C)[C@@H](O[C@@H]2O[C@H](C)C[C@H](N(C)C(C)C)[C@H]2O)[C@](C)(O)C[C@@H](C)[C@H](OC(=O)N(C)C)[C@H](C)[C@@H](O)[C@H]1C [Compound A-75] |
| 64 µg/mL (≈ 76.6 µM) | 58 nM | CC[C@H]1OC(=O)[C@H](C)[C@@H](O[C@H]2C[C@@](C)(OC)[C@@H](O)[C@H](C)O2)[C@H](C)[C@@H](O[C@@H]2O[C@H](C)C[C@H](N(C)C(C)C)[C@H]2O)[C@](C)(O)C[C@@H](C)[C@H](OCC(=O)NC)[C@H](C)[C@@H](O)[C@]1(C)O [Compound A-21] |
| 64 µg/mL (≈ 91.7 µM) | 7 nM | CC[C@H]1OC(=O)[C@H](C)[C@@H](OC2C[C@@](C)(OC)C[C@H](C)O2)[C@H](C)[C@@H](OC2O[C@H](C)C[C@H](N(C)CC)[C@H]2O)[C@@]2(C)CC(C)=C(O2)[C@H](C)[C@@H](O)[C@H]1C (stereo partly shown) [ABT-229, reference compound] |
| > 128 µg/mL | 560 nM | CC[C@H]1OC(=O)[C@H](C)[C@@H](O[C@H]2C[C@@](C)(OC)[C@@H](O)[C@H](C)O2)[C@H](C)[C@@H](O[C@@H]2O[C@H](C)C[C@H](N(C)C3CCC3)[C@H]2O)[C@](C)(O)C[C@@H](C)[C@H](OCC(=O)OC)[C@H](C)[C@@H](O)[C@]1(C)O [Compound A-23] |
| 128 µg/mL (≈ 153 µM) | 310 nM | CC[C@H]1OC(=O)[C@H](C)[C@@H](O[C@H]2C[C@@](C)(OC)[C@@H](O)[C@H](C)O2)[C@H](C)[C@@H](O[C@@H]2O[C@H](C)C[C@H](N(C)C(C)C)[C@H]2O)[C@](C)(O)C[C@@H](C)[C@H](OC(=O)N(C)C)[C@H](C)[C@@H](O)[C@]1(C)O [Compound A-18] |
| 64 µg/mL (≈ 79.3 µM) | 650 nM | CC[C@H]1OC(=O)[C@H](C)[C@@H](O[C@H]2C[C@@](C)(OC)[C@@H](O)[C@H](C)O2)[C@H](C)[C@@H](O[C@@H]2O[C@H](C)C[C@H](N(C)C(C)C)[C@H]2O)[C@](C)(O)C[C@@H](C)[C@H](OC(N)=O)[C@H](C)[C@@H](O)[C@]1(C)O [Compound A-17] |
| 128 µg/mL (≈ 153 µM) | 1100 nM | CC[C@H]1OC(=O)[C@H](C)[C@@H](O[C@H]2C[C@@](C)(OC)[C@@H](O)[C@H](C)O2)[C@H](C)[C@@H](O[C@@H]2O[C@H](C)C[C@H](N(C)C[C@H](C)O)[C@H]2O)[C@](C)(O)C[C@@H](C)[C@H](OCCOC)[C@H](C)[C@@H](O)[C@]1(C)O [Compound A-6] |
| 64 µg/mL (≈ 77.9 µM) | 52 nM | CC[C@H]1OC(=O)[C@H](C)[C@@H](O[C@H]2C[C@@](C)(OC)[C@@H](O)[C@H](C)O2)[C@H](C)[C@@H](O[C@@H]2O[C@H](C)C[C@H](N(C)C(C)C)[C@H]2O)[C@](C)(O)C[C@@H](C)[C@H](OCC(N)=O)[C@H](C)[C@@H](O)[C@]1(C)O [Compound A-12] |
